Among the data in patent US20220389061A1, “IMMUNOMODULATORS” (priority 2019, published 2022) are IC50 values, retold here.

Starred links: 1 amine or outer side, 2 acyl side, 3 side chain; linkers in the order of their positions; H or OH if unused. Positions of bridges follow the written chain, without caps; N, C: chain ends. Non-standard residues stand in square brackets, D forms with d. Residues, ends and D or L forms follow the SMILES beside them. Groups on a side chain read outwards from the residue. *: point of attachment. Trp(1-CH2COOH) = N[C@@H](Cc1cn(CC(=O)O)c2ccccc12)C(=O)O; X8 = NC(=O)c1c[nH]c2c(NC(=S)*)cccc12; X31 = S=C(Nc1cccc2c(Cl)c[nH]c12)*; Hyp = O=C(O)[C@@H]1C[C@@H](O)CN1; X14 = Cc1c[nH]c2c(NC(=S)*)cccc12; NMeNle = CCCC[C@H](NC)C(=O)O; X54 = S=C(Nc1cccc2ncccc12)*; X82 = S=C(Nc1cccc2nsnc12)*; X93 = c1cc2c(c(N*)c1)CCCC2; NMeA = CN[C@@H](C)C(=O)O; Dab = NCC[C@H](N)C(=O)O; X45 = c1ccc2sc(N*)cc2c1; Dap = NC[C@H](N)C(=O)O; CO = O=C([*:1])[*:2]

In one test the target is T1, PD-1/PD-L1 (Homo sapiens, UniProt Q9NZQ7).
T1 construct: TVMV protease site linker (C); made in house; host or cells: HEK293T cells
T1 sequence (Q9NZQ7 18-239): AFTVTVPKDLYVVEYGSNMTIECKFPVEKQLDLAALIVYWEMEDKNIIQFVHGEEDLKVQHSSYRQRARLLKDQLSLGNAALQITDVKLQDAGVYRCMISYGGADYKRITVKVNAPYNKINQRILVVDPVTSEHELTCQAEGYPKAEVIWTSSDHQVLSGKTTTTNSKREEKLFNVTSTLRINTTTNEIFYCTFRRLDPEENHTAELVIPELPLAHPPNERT
As to the kind of experiment: PD-1/PD-L1 Homogenous Time-Resolved Fluorescence (HTRF) binding assay.
Conditions: not given
A digest of the protocol: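 HTRF read-out using europium cryptate anti-Ig (1 nM) and APC anti-His (20 nM) on extracellular-domain fusion proteins in dPBS/0.1% BSA/0.05% Tween-20. Inhibitor first incubated 15 min with 10 nM PD-L1-His, followed by 20 nM PD-1-Ig for another 15 min.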
On to `CCCC[C@H]1C(=O)N(C)[C@@H](CCCC)C(=O)N[C@@H](CC(C)C)C(=O)N[C@H](C(=O)NCC(N)=O)CSCC(=O)N[C@@H](Cc2ccc(O)cc2)C(=O)N(C)[C@@H](C)C(=O)N[C@@H](CC(N)=O)C(=O)N2CCC[C@H]2C(=O)N[C@@H](CNC(=O)Nc2cccc3c2CCCC3)C(=O)N[C@@H](CC(C)C)C(=O)N2C[C@H](O)C[C@H]2C(=O)N[C@@H](Cc2c[nH]c3ccccc23)C(=O)N[C@@H](CCNC(=O)Nc2cccc3c2CCCC3)C(=O)N[C@@H](Cc2cn(CC(=O)O)c3ccccc23)C(=O)N1C` [Example 3015] ({CH2CO}-Y[NMeA]NP[Dap]([CO-X93])L[Hyp]W[Dab]([CO-X93])[Trp(1-CH2COOH)][NMeNle][NMeNle]LCG-NH2; thioether N-14), for which the IC50 was 0.7 nM.

The test is the same for the next values; noted with them: PD-L1-His 10 nM pre-incubated with inhibitor, PD-1-Ig 20 nM; read-out: HTRF IC50.
`CCCC[C@H]1C(=O)N(C)[C@@H](CCCC)C(=O)N[C@@H](CC(C)C)C(=O)N[C@H](C(=O)NCC(N)=O)CSCC(=O)N[C@@H](Cc2ccc(O)cc2)C(=O)N(C)[C@@H](C)C(=O)N[C@@H](CC(N)=O)C(=O)N2CCC[C@H]2C(=O)N[C@@H](CNC(=S)Nc2cccc3nsnc23)C(=O)N[C@@H](CC(C)C)C(=O)N2C[C@H](O)C[C@H]2C(=O)N[C@@H](Cc2c[nH]c3ccccc23)C(=O)N[C@@H](CCN)C(=O)N[C@@H](Cc2cn(CC(=O)O)c3ccccc23)C(=O)N1C` [Example 3016] ({CH2CO}-Y[NMeA]NP[Dap](X82)L[Hyp]W[Dab][Trp(1-CH2COOH)][NMeNle][NMeNle]LCG-NH2; thioether N-14): the IC50 is 0.6 nM. Consider `CCCC[C@H]1C(=O)N(C)[C@@H](CCCC)C(=O)N[C@@H](CC(C)C)C(=O)N[C@H](C(=O)NCC(N)=O)CSCC(=O)N[C@@H](Cc2ccc(O)cc2)C(=O)N(C)[C@@H](C)C(=O)N[C@@H](CC(N)=O)C(=O)N2CCC[C@H]2C(=O)N[C@@H](CNC(=S)Nc2cccc3c(C(N)=O)c[nH]c23)C(=O)N[C@@H](CC(C)C)C(=O)N2C[C@H](O)C[C@H]2C(=O)N[C@@H](Cc2c[nH]c3ccccc23)C(=O)N[C@@H](CCN)C(=O)N[C@@H](Cc2cn(CC(=O)O)c3ccccc23)C(=O)N1C` [Example 3017] ({CH2CO}-Y[NMeA]NP[Dap](X8)L[Hyp]W[Dab][Trp(1-CH2COOH)][NMeNle][NMeNle]LCG-NH2; thioether N-14), for which the IC50 was determined as 3.6 nM. Turning to `CCCC[C@H]1C(=O)N(C)[C@@H](CCCC)C(=O)N[C@@H](CC(C)C)C(=O)N[C@H](C(=O)NCC(N)=O)CSCC(=O)N[C@@H](Cc2ccc(O)cc2)C(=O)N(C)[C@@H](C)C(=O)N[C@@H](CC(N)=O)C(=O)N2CCC[C@H]2C(=O)N[C@@H](CNC(=S)Nc2cccc3ncccc23)C(=O)N[C@@H](CC(C)C)C(=O)N2C[C@H](O)C[C@H]2C(=O)N[C@@H](Cc2c[nH]c3ccccc23)C(=O)N[C@@H](CCN)C(=O)N[C@@H](Cc2cn(CC(=O)O)c3ccccc23)C(=O)N1C` [Example 3018] ({CH2CO}-Y[NMeA]NP[Dap](X54)L[Hyp]W[Dab][Trp(1-CH2COOH)][NMeNle][NMeNle]LCG-NH2; thioether N-14), the IC50 came to 3.8 nM. As to `CCCC[C@H]1C(=O)N(C)[C@@H](CCCC)C(=O)N[C@@H](CC(C)C)C(=O)N[C@H](C(=O)NCC(N)=O)CSCC(=O)N[C@@H](Cc2ccc(O)cc2)C(=O)N(C)[C@@H](C)C(=O)N[C@@H](CC(N)=O)C(=O)N2CCC[C@H]2C(=O)N[C@@H](CNC(=S)Nc2cccc3c(Cl)c[nH]c23)C(=O)N[C@@H](CC(C)C)C(=O)N2C[C@H](O)C[C@H]2C(=O)N[C@@H](Cc2c[nH]c3ccccc23)C(=O)N[C@@H](CCNC(=S)Nc2cccc3c(Cl)c[nH]c23)C(=O)N[C@@H](Cc2cn(CC(=O)O)c3ccccc23)C(=O)N1C` [Example 3019] ({CH2CO}-Y[NMeA]NP[Dap](X31)L[Hyp]W[Dab](X31)[Trp(1-CH2COOH)][NMeNle][NMeNle]LCG-NH2; thioether N-14), the IC50 was found to be 3.3 nM.

As for `CCCC[C@H]1C(=O)N(C)[C@@H](CCCC)C(=O)N[C@@H](CC(C)C)C(=O)N[C@H](C(=O)NCC(N)=O)CSCC(=O)N[C@@H](Cc2ccc(O)cc2)C(=O)N(C)[C@@H](C)C(=O)N[C@@H](CC(N)=O)C(=O)N2CCC[C@H]2C(=O)N[C@@H](CNC(=S)Nc2cccc3c(C)c[nH]c23)C(=O)N[C@@H](CC(C)C)C(=O)N2C[C@H](O)C[C@H]2C(=O)N[C@@H](Cc2c[nH]c3ccccc23)C(=O)N[C@@H](CCN)C(=O)N[C@@H](Cc2cn(CC(=O)O)c3ccccc23)C(=O)N1C` [Example 3020] ({CH2CO}-Y[NMeA]NP[Dap](X14)L[Hyp]W[Dab][Trp(1-CH2COOH)][NMeNle][NMeNle]LCG-NH2; thioether N-14), the IC50 turned out to be 2.5 nM.

As to `CCCC[C@H]1C(=O)N(C)[C@@H](CCCC)C(=O)N[C@@H](CC(C)C)C(=O)N[C@H](C(=O)NCC(N)=O)CSCC(=O)N[C@@H](Cc2ccc(O)cc2)C(=O)N(C)[C@@H](C)C(=O)N[C@@H](CC(N)=O)C(=O)N2CCC[C@H]2C(=O)N[C@@H](CNC(=O)Nc2cc3ccccc3s2)C(=O)N[C@@H](CC(C)C)C(=O)N2C[C@H](O)C[C@H]2C(=O)N[C@@H](Cc2c[nH]c3ccccc23)C(=O)N[C@@H](CCNC(=O)Nc2cc3ccccc3s2)C(=O)N[C@@H](Cc2cn(CC(=O)O)c3ccccc23)C(=O)N1C` [Example 3022] ({CH2CO}-Y[NMeA]NP[Dap]([CO-X45])L[Hyp]W[Dab]([CO-X45])[Trp(1-CH2COOH)][NMeNle][NMeNle]LCG-NH2; thioether N-14), the IC50 was 11 nM. On the same count and under the same terms, to `CCCC[C@H]1C(=O)N(C)[C@@H](CCCC)C(=O)N[C@@H](CC(C)C)C(=O)N[C@H](C(=O)NCC(N)=O)CSCC(=O)N[C@@H](Cc2ccc(O)cc2)C(=O)N(C)[C@@H](C)C(=O)N[C@@H](CC(N)=O)C(=O)N2CCC[C@H]2C(=O)N[C@@H](CNC(=S)Nc2cccc3c(C(N)=O)c[nH]c23)C(=O)N[C@@H](CC(C)C)C(=O)N2C[C@H](O)C[C@H]2C(=O)N[C@@H](Cc2c[nH]c3ccccc23)C(=O)N[C@@H](CCNC(=S)Nc2cccc3c(C(N)=O)c[nH]c23)C(=O)N[C@@H](Cc2cn(CC(=O)O)c3ccccc23)C(=O)N1C` [Example 3023] ({CH2CO}-Y[NMeA]NP[Dap](X8)L[Hyp]W[Dab](X8)[Trp(1-CH2COOH)][NMeNle][NMeNle]LCG-NH2; thioether N-14) belongs 1.6 nM. With `CCCC[C@H]1C(=O)N(C)[C@@H](CCCC)C(=O)N[C@@H](CC(C)C)C(=O)N[C@H](C(=O)NCC(N)=O)CSCC(=O)N[C@@H](Cc2ccc(O)cc2)C(=O)N(C)[C@@H](C)C(=O)N[C@@H](CC(N)=O)C(=O)N2CCC[C@H]2C(=O)N[C@@H](CNC(=S)Nc2cccc3ncccc23)C(=O)N[C@@H](CC(C)C)C(=O)N2C[C@H](O)C[C@H]2C(=O)N[C@@H](Cc2c[nH]c3ccccc23)C(=O)N[C@@H](CCNC(=S)Nc2cccc3ncccc23)C(=O)N[C@@H](Cc2cn(CC(=O)O)c3ccccc23)C(=O)N1C` [Example 3024] ({CH2CO}-Y[NMeA]NP[Dap](X54)L[Hyp]W[Dab](X54)[Trp(1-CH2COOH)][NMeNle][NMeNle]LCG-NH2; thioether N-14), the IC50 is 3.2 nM.

Turning to `CCCC[C@H]1C(=O)N(C)[C@@H](CCCC)C(=O)N[C@@H](CC(C)C)C(=O)N[C@H](C(=O)NCC(N)=O)CSCC(=O)N[C@@H](Cc2ccc(O)cc2)C(=O)N(C)[C@@H](C)C(=O)N[C@@H](CC(N)=O)C(=O)N2CCC[C@H]2C(=O)N[C@@H](CNC(=S)Nc2cccc3c(C)c[nH]c23)C(=O)N[C@@H](CC(C)C)C(=O)N2C[C@H](O)C[C@H]2C(=O)N[C@@H](Cc2c[nH]c3ccccc23)C(=O)N[C@@H](CCNC(=S)Nc2cccc3c(C)c[nH]c23)C(=O)N[C@@H](Cc2cn(CC(=O)O)c3ccccc23)C(=O)N1C` [Example 3025] ({CH2CO}-Y[NMeA]NP[Dap](X14)L[Hyp]W[Dab](X14)[Trp(1-CH2COOH)][NMeNle][NMeNle]LCG-NH2; thioether N-14), the IC50 stood at 2.9 nM.
